According to the supplement of paper PMC10307832:

What was measured:
Experiment in all cases: relative viability (nuclei count vs DMSO), 5 days (fraction); higher = more cells survive
[1] = compound: CC1=CC(=C(N1C2=CC=C(C=C2)Cl)C)C(=O)CN3CCCCC3 [IU1-47] + CC(=O)Nc1cccc(-n2c(=O)n(C3CC3)c(=O)c3c(Nc4ccc(I)cc4F)n(C)c(=O)c(C)c32)c1 [Trametinib] (partner 0.02 µM)
In short: (§1)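 Dosing by pin tool came one day after lung cancer cell lines were seeded in 1536-well plates, using either one drug or a fixed anchor-drug dose plus five library-drug doses (not always all listed) in √10 steps. After 5 days, nuclei were counted on 4× images. Relative viability is treated-well nuclei count divided by vehicle-well nuclei count, and values are medians of duplicate plates.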

[2] = compound: CC1=CC(=C(N1C2=CC=C(C=C2)Cl)C)C(=O)CN3CCCCC3 [IU1-47] + Cc1nc(NC(=O)N2CCC[C@H]2C(N)=O)sc1-c1ccnc(C(C)(C)C(F)(F)F)c1 [Alpelisib] (partner 2 µM)
In short: as §1

[3] = compound: CC1=CC(=C(N1C2=CC=C(C=C2)Cl)C)C(=O)CN3CCCCC3 [IU1-47] + N=C(N)NC(=N)NCCc1ccccc1 [Phenformin] (partner 250 µM)
In short: as §1

[4] = compound: Cc1nc(C(=O)NCC(=O)O)c(O)c2ccc(Oc3ccccc3)cc12 [FG-4592] + O=C(CCCCCCC(=O)Nc1ccccc1)NO [Vorinostat] (partner 1 µM)
In short: as §1

Cell Line	relative viability ([1]; first compound 0.08 µM)	relative viability ([1]; first compound 0.253 µM)	relative viability ([1]; first compound 0.8 µM)	relative viability ([1]; first compound 2.53 µM)	relative viability ([1]; first compound 8 µM)	relative viability ([2]; first compound 0.08 µM)	relative viability ([2]; first compound 0.253 µM)	relative viability ([2]; first compound 0.8 µM)	relative viability ([2]; first compound 2.53 µM)	relative viability ([2]; first compound 8 µM)	relative viability ([3]; first compound 0.08 µM)	relative viability ([3]; first compound 0.253 µM)	relative viability ([3]; first compound 0.8 µM)	relative viability ([3]; first compound 2.53 µM)	relative viability ([3]; first compound 8 µM)	relative viability ([4]; first compound 0.08 µM)	relative viability ([4]; first compound 0.253 µM)	relative viability ([4]; first compound 0.8 µM)	relative viability ([4]; first compound 2.53 µM)	relative viability ([4]; first compound 8 µM)
NCI-H1666	1	0.871	0.851	0.916	0.901	0.882	0.903	0.812	1.03	0.836	0.609	0.527	0.539	0.584	0.544	1.02	0.932	0.954	1.08	1.03
NCI-H1734	0.867	0.67	0.593	0.647	0.645	0.645	0.714	0.65	–	0.708	0.441	0.423	0.369	–	0.376	0.762	0.802	0.616	0.713	0.852
NCI-H1755	0.794	0.756	0.891	0.812	0.794	1.04	1.03	1.03	0.978	0.8	0.684	0.665	0.698	0.613	0.662	0.694	0.761	0.472	0.69	0.747
NCI-H1793	0.42	–	0.554	0.513	0.416	0.83	0.683	0.901	–	0.665	0.419	0.259	0.475	–	0.352	–	0.677	–	0.638	0.678
NCI-H1915	0.296	0.288	0.28	0.3	0.324	1.07	1.11	1.13	–	1.07	0.373	0.354	0.342	–	0.332	0.452	0.489	0.469	0.442	0.468
NCI-H1944	0.453	0.473	0.414	0.386	0.415	0.853	0.886	0.903	–	0.847	0.2	0.192	0.199	0.216	0.168	0.479	0.571	0.461	0.512	0.561
NCI-H1975	0.337	0.324	0.464	0.328	0.322	0.684	0.619	0.708	0.659	0.444	0.411	0.411	0.409	0.419	0.384	0.723	0.644	0.748	0.767	0.653
NCI-H1993	0.545	0.613	0.564	0.471	0.0511	0.753	0.728	0.657	0.725	0.594	0.488	0.493	0.516	0.506	0.498	1.06	0.69	–	0.642	0.814
NCI-H2009	0.257	0.3	0.254	0.274	0.25	1.24	1.18	1.13	1.18	1.21	0.519	0.501	0.5	0.486	0.412	0.823	0.694	0.88	0.671	0.727
NCI-H2023	0.563	0.636	0.607	0.608	0.557	0.6	0.531	0.511	0.627	0.519	0.459	0.387	0.411	0.472	0.378	0.631	0.514	0.572	0.553	0.543
NCI-H2085	0.515	0.471	0.577	0.614	0.523	1.04	0.973	1.02	0.975	0.856	0.736	0.711	0.713	0.771	0.675	0.693	0.755	0.65	0.769	0.771
NCI-H2087	0.172	0.187	0.203	0.195	0.229	1.23	1.01	1.15	1.21	0.909	0.469	0.503	0.548	–	0.441	0.695	0.453	0.565	–	0.869
NCI-H2126	0.642	0.595	0.592	0.498	0.534	0.759	0.814	0.78	0.55	0.707	0.535	0.515	0.508	–	0.529	0.709	0.726	0.594	0.509	0.73
NCI-H2170	0.991	0.913	1	0.9	0.638	0.905	0.799	0.84	0.777	0.772	0.48	0.435	0.389	0.414	0.403	0.825	0.747	0.627	0.785	0.608
NCI-H2228	0.614	0.415	0.699	0.454	0.399	0.904	1.06	0.687	0.796	0.451	0.413	0.434	0.315	0.32	0.262	0.592	0.408	0.77	0.583	0.449
NCI-H2347	0.258	0.282	0.3	0.304	0.302	0.958	1.05	1.11	1.05	1.11	0.387	0.413	0.336	0.496	0.345	0.519	0.421	0.52	0.41	0.585
NCI-H2405	0.69	0.702	0.762	0.672	0.622	0.795	0.761	0.749	–	0.768	0.404	0.415	0.386	0.371	0.365	0.767	0.906	0.92	0.942	0.961
NCI-H3122	0.253	0.287	0.268	0.309	0.222	0.82	1.02	0.97	0.967	0.724	0.398	0.373	0.366	0.372	0.347	0.997	0.906	0.975	0.975	0.592
PC-3 [JPC-3]	0.771	0.686	0.73	0.715	0.791	1.08	0.982	1.04	–	1.01	0.498	0.463	0.44	0.496	0.429	0.705	0.797	–	0.853	0.823
PC-14	0.95	0.771	0.91	1.14	0.723	1.03	0.987	1.12	1.02	0.782	0.686	0.611	0.633	0.664	0.406	0.785	0.738	0.814	0.694	0.615
RERF-LC-KJ	0.845	0.883	0.998	1.1	0.799	0.785	0.946	0.775	0.869	0.76	0.415	0.423	0.421	0.493	0.411	0.672	0.629	0.705	0.486	0.701
SK-LU-1	0.52	0.542	0.543	0.491	0.395	0.8	1.22	0.943	1.31	0.807	0.574	0.507	0.487	0.581	0.419	0.862	0.505	0.799	0.845	0.811
SK-MES-1	0.585	0.606	0.567	0.629	0.584	0.885	0.998	1.03	0.859	0.922	0.729	0.76	0.66	0.662	0.575	1.13	0.969	1.02	0.947	1.02
SW 1573	0.656	0.59	0.683	0.721	0.489	0.905	0.758	0.664	0.756	0.839	0.394	0.353	0.367	0.421	0.382	0.708	0.965	0.604	0.543	0.494
